pIC50: −log10 of the molar value. Strand notation (5' to 3'): a small letter for the sugar, then the base; units joined by * are phosphorothioate-linked, units joined directly phosphodiester-linked; [ ] holds rarer units or linkages, { } end groups; capitals alone tell only the bases. e = 2'-O-(2-methoxyethyl) (MOE); [5mC] = 5-methylcytosine; d = 2'-deoxy (DNA)
Tests used:
human PKK mRNA [1] = test: Human PKK mRNA in liver of human KLKB1 transgenic mice (Example 7); assay type: in vivo; settings: twice a week for 3 weeks
Procedure: (§1) Transgenic mice containing a 37,390 base pair fragment of the human KLKB1 gene sequence (chromosome 4: position 187148672-187179625, accession no: NC_000004.11) were treated with ISIS antisense oligonucleotides selected from studies described above, which were evaluated for efficacy in this model.
(§2) Groups of transgenic mice were injected subcutaneously twice a week for 3 weeks with 2.5 mg/kg/week, 5.0 mg/kg/week, 10 mg/kg/week or 20 mg/kg/week of ISIS 546232, ISIS 546251, ISIS 546254, ISIS 546343, ISIS 546828, ISIS 547455, ISIS 547457, ISIS 547927, and ISIS 548048. One group of transgenic mice was injected subcutaneously twice a week for 3 weeks with PBS. Mice were euthanized 48 hours after the last dose, and organs and plasma were harvested for further analysis.
To evaluate the effect of ISIS oligonucleotides on target reduction, RNA was extracted from liver tissue for real-time PCR analysis of human PKK. Results are presented as percent inhibition of PKK mRNA, relative to PBS control.

PKK mRNA = PKK mRNA in cynomolgus monkey liver (Example 8); assay type: in vivo; settings: 40 mg/kg s.c., loading then weekly to week 13; day 87 or 88, 48 h after final dose
Procedure: Cynomolgus monkeys were treated with ISIS antisense oligonucleotides selected from studies described above. Antisense oligonucleotide efficacy and tolerability were evaluated. The human antisense oligonucleotides tested are cross-reactive with the rhesus genomic sequence (GENBANK Accession No. NW_001118167.1 truncated from nucleotides 2358000 to 2391000 and designated herein as SEQ ID NO: 18).
On day 87 or 88, 48 hours after the final dose, RNA was extracted from liver tissue for real-time PCR analysis of PKK using primer probe set RTS3455 (forward sequence […], designated herein as SEQ ID NO: 23; reverse sequence […], designated herein as SEQ ID NO: 24; probe sequence […], designated herein as SEQ ID NO: 25). The results were normalized to the housekeeping gene, Cyclophilin. Results are presented as percent inhibition of PKK mRNA, relative to PBS control.

human PKK mRNA [2] = test: Antisense inhibition of human PKK mRNA in HepaRG cells, 5,000 nM (Example 2); assay type: cell-based; settings: electroporation with 5,000 nM antisense oligonucleotide, approx. 24 hours, PKK mRNA by RT-PCR (RTS3454), relative to untreated control cells
Procedure, shortened: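 Percent inhibition of PKK mRNA is relative to untreated control, with qRT-PCR (probe set RTS3454) values adjusted to total RNA by RIBOGREEN. Oligonucleotides, fully phosphorothioate 2′-MOE gapmers, were delivered at 5,000 nM by electroporation into 20,000 HepaRG cells/well for about 24 h.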

human PKK mRNA [3] = test: Dose-dependent antisense inhibition of human PKK in HepaRG cells, 0.19-5.00 uM (Example 5); assay type: cell-based
Procedure, shortened: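 PKK mRNA knockdown was measured by real-time PCR (primer probe set RTS3454) about 16 h after electroporating 20,000 HepaRG cells per well with oligonucleotide at four doses from 0.19 to 5.00 μM. Levels were adjusted to RIBOGREEN-measured total RNA, and IC50 values were calculated.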

PKK protein = test: Plasma PKK protein levels in human KLKB1 transgenic mice (Example 7); assay type: in vivo; settings: plasma, twice a week for 3 weeks
Procedure: as §1, §2
Plasma PKK protein levels were evaluated in all groups. Results are presented as percent inhibition of PKK protein, relative to PBS control.

[4] = HepaRG cells, electroporation, approximately 16 hours, Table 39
[5] = HepaRG cells, electroporation, approximately 16 hours, Table 41
[6] = 4 point dose response, HepaRG cells, Table 41
[7] = Table 34, HepaRG, electroporation, ~16 h
[8] = Table 34, PKK mRNA, HepaRG, electroporation, ~16 h

Row | Substance | % inhibition of PKK mRNA in the transgenic mice liver relative to the PBS control (human PKK mRNA [1]; 2.5 mg/kg/week sc) | % inhibition of PKK mRNA in the transgenic mice liver relative to the PBS control (human PKK mRNA [1]; 5 mg/kg/week sc) | % inhibition of PKK mRNA in the transgenic mice liver relative to the PBS control (human PKK mRNA [1]; 10 mg/kg/week sc) | % inhibition of PKK mRNA in the transgenic mice liver relative to the PBS control (human PKK mRNA [1]; 20 mg/kg/week sc) | % inhibition of PKK mRNA in the cynomolgus monkey liver relative to the PBS control (PKK mRNA) | % inhibition of PKK protein levels in the transgenic mice relative to the PBS control (PKK protein; 2.5 mg/kg/week sc) | % inhibition of PKK protein levels in the transgenic mice relative to the PBS control (PKK protein; 5 mg/kg/week sc) | % inhibition of PKK protein levels in the transgenic mice relative to the PBS control (PKK protein; 10 mg/kg/week sc) | % inhibition of PKK protein levels in the transgenic mice relative to the PBS control (PKK protein; 20 mg/kg/week sc) | percent inhibition of PKK at 5.00 μM (human PKK mRNA [3]; [5]) | percent inhibition of PKK at 0.19 0μM (human PKK mRNA [3]; [5]) | percent inhibition of PKK at 0.56 0μM (human PKK mRNA [3]; [5]) | percent inhibition of PKK at 1.67 1μM (human PKK mRNA [3]; [5]) | pIC50 (human PKK mRNA [3]; [6]) | percent inhibition of PKK at 0.19 μM (human PKK mRNA [3]; [7]) | percent inhibition of PKK at 0.56 μM (human PKK mRNA [3]; [7]) | percent inhibition of PKK at 1.67 μM (human PKK mRNA [3]; [7]) | percent inhibition of PKK at 5.00 μM (human PKK mRNA [3]; [7]) | pIC50 (human PKK mRNA [3]; [8]) | further results
1 | 546232 (eA*eG*eG*eA*eA*d[5mC]*dT*dT*dG*dG*dT*dG*dT*dG*d[5mC]*e[5mC]*eA*e[5mC]*eT*eT) [compound 546232] | 57% | 53% | 30% | 84% | 88% | 0% | 6% | 33% | 79% |  |  |  |  |  |  |  |  |  |  | % inhibition (human PKK mRNA [2]; Table 7, HepaRG cells): 86%; percent inhibition of PKK at 0.19 μM (human PKK mRNA [3]; [4]): 49%; percent inhibition of PKK at 0.56 μM (human PKK mRNA [3]; [4]): 50%; percent inhibition of PKK at 1.67 μM (human PKK mRNA [3]; [4]): 94%; percent inhibition of PKK at 5.00 μM (human PKK mRNA [3]; [4]): 97%; pIC50 (human PKK mRNA [3]; 4 point dose response, HepaRG cells, Table 39): 6.70; percent inhibition of PKK mRNA, 0.19 μM (human PKK mRNA [3]; HepaRG cells, 0.19 μM antisense oligonucleotide): 0%; percent inhibition of PKK mRNA, 0.56 μM (human PKK mRNA [3]; HepaRG cells, 0.56 μM antisense oligonucleotide): 74%; percent inhibition of PKK mRNA, 1.67 μM (human PKK mRNA [3]; HepaRG cells, 1.67 μM antisense oligonucleotide): 95%; percent inhibition of PKK mRNA, 5.00 μM (human PKK mRNA [3]; HepaRG cells, 5.00 μM antisense oligonucleotide): 96%; pIC50 (human PKK mRNA [3]; HepaRG cells, 0.19-5.00 μM): 6.70
2 | 546343 (antisense e[5mC]*e[5mC]*e[5mC]*e[5mC]*e[5mC]*dT*dT*d[5mC]*dT*dT*dT*dA*dT*dA*dG*e[5mC]*e[5mC]*eA*eG*e[5mC]) [compound 546343] | 46% |  | 66% | 86% | 74% | 0% |  | 38% | 79% | 95% | 37% | 32% | 83% | 6.40 | 28% | 64% | 87% | 87% | 6.40 | % inhibition (human PKK mRNA [2]; Table 9 experiment, HepaRG cells, 20,000 cells per well): 97%; % inhibition (human PKK mRNA [2]; Table 10 experiment, HepaRG cells, 20,000 cells per well): 91%
3 | 546254 (eT*eG*e[5mC]*eA*eA*dG*dT*d[5mC]*dT*d[5mC]*dT*dT*dG*dG*d[5mC]*eA*eA*eA*e[5mC]*eA) [compound 546254] | 31% | 55% | 84% | 83% | 88% | 0% | 36% | 51% | 76% | 95% | 40% | 63% | 84% | 6.52 | 51% | 66% | 80% | 91% | 6.70 | % inhibition (human PKK mRNA [2]; Table 8, HepaRG cells): 95%
